Test results from patent US7846956B2, “Malononitrile compound as pesticides” (Sumitomo Chemical Company, Limited, priority 2004, dated 2010).

Columns and labels:
Type in all cases: in vivo
Musca domestics = test: Experimental Example 3: filter paper test with sucrose bait, death rate of Musca domestics; conditions: 500 ppm active ingredient, 0.7 ml on filter paper, 10 female imagoes, after 24 hours, read-out: death rate of the pest
Procedure: Preparations of the present compounds (1), (2), (3), (4), (5), (6), (8), (9), (10), (11), (12), (13), (14), (15), (16), (17), (18), (19), (21), (22), (23), (24), (25), (26), (27), (31), (34), (35), (36), (37), (38), (39), (40), (42), (47), (50), (52), (54), (66), (67) and (68) obtained according to Formulation Example 5 were diluted with water so that the active ingredient concentration was 500 ppm to prepare experimental pesticidal solutions.
(§1) A filter paper having a diameter of 5.5 cm was spread on the bottom of a polyethylene cup having a diameter of 5.5 cm and 0.7 ml of the experimental pesticidal solution was added dropwise onto the filter paper. As a bait 30 mg of sucrose was uniformly placed on the filter paper. Into the polyethylene cup, 10 female Musca domestics imagoes were released and the cup was sealed with a lid. After 24 hours, the number of surviving Musca domestics was examined and the death rate of the pest was calculated.

Culex pipiens pallens = test: Experimental Example 5: larvae in treated water, death rate of Culex pipiens pallens; conditions: 24 h, active ingredient concentration 3.5 ppm in water, 20 last-instar larvae, after one day, read-out: death rate of the pest
Procedure: Preparations of the present compounds (1), (2), (4), (5), (6), (8), (9), (11), (12), (13), (14), (15), (16), (17), (18), (19), (21), (22), (23), (24), (25), (26), (27), (31), (33), (34), (35), (36), (37), (38), (39), (40), (42), (43), (47), (48), (50), (52), (53), (54), (62), (64), (65), (66), (67), (68) and (70) obtained according to Formulation Example 5 were diluted with water so that the active ingredient concentration was 500 ppm to prepare experimental pesticidal solutions.
0.7 ml of the experimental pesticidal solution was added to 100 mL of ion-exchanged water (active ingredient concentration: 3.5 ppm). Into the solution, 20 last-instar larvae of Culex pipiens pallens were released. After one day, the surviving number was examined and the death rate of the pest was calculated.

Blattalla germanica = test: Experimental Example 4: filter paper test with sucrose bait, death rate of Blattalla germanica; conditions: 144 h; 500 ppm active ingredient, 0.7 ml on filter paper; two male imagoes; after 6 days
Procedure: Preparations of the present compounds (2), (4), (5), (6), (8), (9), (11), (12), (13), (15), (17), (18), (19), (21), (24), (25), (26), (27), (35), (36), (37), (38), (40), (41), (42), (47), (50), (52), (54), (62), (64), (65), (66) and (68) obtained according to Formulation Example 5 were diluted with water so that the active ingredient concentration was 500 ppm to prepare experimental pesticidal solutions.
as §1, with “two male Blattalla gexmanica images” for “10 female Musca domestics imagoes”, “6 days,” for “24 hours,”, “Blattalla germanica” for “Musca domestics”

Compound | pest or weed control at 500 ppm (Musca domestics) | pest or weed control at 3.5 ppm (Culex pipiens pallens) | pest or weed control at 500 ppm (Blattalla germanica)
N#CC(C#N)(CCC(F)(F)F)Cc1cnn(Cc2ccccc2)c1 [present compound (8)] | ≥ 90% | ≥ 95% | 100%
C=CC(c1cc(C(C)(C)O)on1)C(C#N)(C#N)CCC(F)(F)F (stereo not drawn) [present compound (66)] | ≥ 90% | ≥ 95% | 100%
Cc1nc(CC(C#N)(C#N)CCC(F)(F)F)cs1 [present compound (11)] | ≥ 90% | ≥ 95% | 100%
CC(C)(C)c1nc(CC(C#N)(C#N)CCC(F)(F)F)co1 [present compound (9)] | ≥ 90% | ≥ 95% | 100%
Cc1ncc(CC(C#N)(C#N)CCC(F)(F)F)s1 [present compound (15)] | ≥ 90% | ≥ 95% | 100%
N#CC(C#N)(CCC(F)(F)F)Cc1csc(Cl)n1 [present compound (13)] | ≥ 90% | ≥ 95% | 100%
CC(C)(C)c1nc(CC(C#N)(C#N)CCC(F)(F)F)cs1 [present compound (12)] | ≥ 90% | ≥ 95% | 100%
CC(C)(C)c1cc(CC(C#N)(C#N)CCC(F)(F)F)sn1 [present compound (5)] | ≥ 90% | ≥ 95% | 100%
CC(C)(C)c1cc(CC(C#N)(C#N)CCC(F)(F)F)on1 [present compound (4)] | ≥ 90% | ≥ 95% | 100%
CC(C)c1cc(CC(C#N)(C#N)CCC(F)(F)F)no1 [present compound (40)] | ≥ 90% | ≥ 95% | 100%
